Results on one compound are retold here after patent US20090162457A1, “RESVERATROL AND/OR GRAPE LEAF EXTRACT AS I. A. ENDURANCE IMPROVER, ANTI-AGING AGENT, MUSCLE STRENGTH IMPROVER” (KAO CORPORATION, priority 2005, published 2009).

Common to all, as to format: in vivo
Assay [1] has as its system SAM-P1 male mice (senescence accelerated mice). In words: Energy metabolism at rest: oxygen consumption by breath analysis (Oxymax system). How it is done:
(§1) After preliminary individual rearing of 13-week-old SAM-P1 male mice (senescence accelerated mice) and SAM-R1 male mice (ordinarily aged mice) for 5 weeks, they were habituated to treadmill running and their maximal running time was measured. The measurement was started after the mice were kept sedentary in the treadmill to accustom them to the environment. The belt speed was started at 10 m/min. The mice were caused to run for 5 minutes on the belt having a speed of 10 m/min, 5 minutes at a speed of 15 m/min, 60 minutes at a speed of […], 60 minutes at a speed of 22 m/min, 60 minutes at a speed of 24 m/min, 60 minutes at a speed of 26 m/min and then at a speed of 28 m/min. […] To avoid a difference in the maximal running time between strains, the mice were divided into three groups, that is, SAM-R1 control group, SAM-P1 control group, and SAM-P1 resveratrol group (each group consisting of 5 to 8 mice). Each mouse was exercised at 15 m/min for 30 minutes three times a week during the period of experiment. The maximal running time of each group was measured after rearing for 8 weeks. In addition, as energy metabolism at rest, oxygen consumption of each group was measured by breath analysis after rearing for 9 weeks. For this analysis, “Oxymax system” (product of Columbus Instruments) equipped with 8 chambers was used. […] From their weights, total muscle weight was determined.

The test system is the same in assay [2]. In words: Maximum muscle strength of extensor digitorum longus muscle under electrical stimulation. The source says: After the preliminary individual rearing of 13-week-old SAM-P1 male mice (senescence accelerated mice) and SAM-R1 male mice (ordinarily aged mice) for 5 weeks, they were habituated to treadmill running. Then, they were divided into SAM-R1 control group, SAM-P1 control group, SAM-P1 exercise group, SAM-P1 resveratrol group/exercise (each group consisting of 5 mice) They were reared for 13 weeks on a diet prepared in accordance with the formulation shown in Table 9. Exercise at 15 m/min was imposed to each mouse of the exercise group for 30 minutes three times a week during the period of experiment. After rearing for 13 weeks, the mice were sacrificed for dissection. Their extensor digitorum longus muscle was fixed to a transducer (“FORT100”, product of World Precision Instruments, Inc.) in a Krebs solution (aeration condition: 95% oxygen, 5% carbon dioxide) of 37° C. and then, electrically stimulated (at 140 Hz for 0.5 msec), whereby the maximum muscle strength was measured.

Another assay relates to Balb/c male mice. The assay is described as follows: Mice maximal swimming time measurement in an adjustable-current swimming pool (endurance-improving/anti-fatigue effect). The settings on record: Test 1; for Maximal swimming time: flow rate 7 L/min. Here is the method: An endurance-improving/anti-fatigue effect was evaluated in accordance with the mice maximal swimming time measurement (Reference: Am. J. Physiol. Regul. Integr. Comp. Physiol., 288, 708-715 (2005)) in an adjustable-current swimming pool. The pool used for this test made of transparent acryl (90 cm long×45 cm wide×45 cm deep) was filled with water to the depth of 38 cm and maintained at 34° C. by a heater. The current in the pool was generated by circulating water with a pump (“C-P60H”, product of Hitachi, Ltd.). The flow rate was regulated by opening and closing of a valve of a water flow meter (product of Tokyo Flow Meter Kenkyujo) connected to the pump. The flow rate was monitored by a current meter (“SV-101-25S”, product of Sanko Seimitsu Kogyo). As a test animal, five-week-old Balb/c male mice (Charles River) were used. They were habituated by preliminary rearing for 1 week under a predetermined rearing environment (23±2° C., light period: from 7:00 am to 7:00 pm). For the next one week, training was performed three times a week in order to accustom the mice to swimming (swimming for 30 minutes at a flow rate of 5 L/min on Day 1, and for 30 minutes at a flow rate of 6 L/min on Day 3 and Day 5). […] To prevent a difference between groups in the maximal swimming time, mice were classified into two groups each consisting of 8 mice, that is, a test diet group and control diet group. During this term, maximal swimming time measurement (7 L/min) and training (6 L/min, 30 minutes) were each conducted once a week.

The subject of assay [3] is SAM-P1 male mice (senescence accelerated mice). In words: Maximal running time on treadmill (anti-aging effect, endurance). Here is the method:
as §1

Assay [4] has the same test system. The assay is described as follows: Total muscle weight (gastrocnemius, soleus, plantaris) per body weight. How it is done:
as §1

As to `Oc1ccc(C=Cc2cc(O)cc(O)c2)cc1` [Resveratrol, 3,4′,5-trihydroxy-stilbene], the “Oxygen consumption (average for 24 hours)” value in assay [1] (after rearing for 9 weeks on feed with 0.2% resveratrol, SAM-P1 control 46.9 ± 1.3) was 57.1 ± 4.3 mL/min/kg. Besides, the “Oxygen consumption compared with SAM-P1 control group (in words)” value in assay [1] (after rearing for 9 weeks, 0.2% resveratrol in feed) is “significantly high compared with that of the SAM-P1 control group”. Besides, in assay [2] (resveratrol (0.2% in feed) plus exercise, reared for 10 weeks per table title (13 weeks per text), SAM-P1 control 9.8 ± 0.3, SAM-P1 exercise 13.0 ± 1.8), the “Maximum muscle strength of extensor digitorum longus muscle” value is 15.0 ± 1.8 g. In addition, the “Maximum muscle strength compared with SAM-P1 control group (in words)” value in assay [2] (resveratrol-containing feed (0.2%) plus exercise) is given as “significantly high”. Also, the Maximal swimming time with Balb/c male mice (after rearing for 10 weeks on diet with 0.2 mass % resveratrol, control diet 31.15 ± 2.57) is 44.80 ± 4.56 min; in the assay with Balb/c male mice (before rearing (baseline), Balb/c male mice), 28.50 ± 1.75 min. In addition, the “Maximal swimming time compared with control diet group (in words)” value in the assay with Balb/c male mice (after rearing for 10 weeks, 0.2 mass % resveratrol in diet) is reported as “significantly extended the maximal swimming time”. The Maximal running time in assay [3] (after rearing for 8 weeks on feed with 0.2% resveratrol, SAM-P1 control 100.0 ± 5.8) worked out at 141.3 ± 19.7 min. For the same compound, the “Maximal running time compared with SAM-P1 control group (in words)” value in assay [3] (after rearing for 8 weeks, 0.2% resveratrol in feed) is “significantly long compared with that of the SAM-P1 control group”. Also, the “Relative muscle weight (muscle weight per body weight)” value in assay [4] (after rearing for 10 weeks on feed with 0.2% resveratrol, SAM-P1 control 0.64 ± 0.02) was 0.81 ± 0.07%. Further, in assay [4] (after rearing for 10 weeks, 0.2% resveratrol in feed), the “Muscle weight compared with SAM-P1 control group (in words)” value is recorded as “significantly large compared with that of the SAM-P1 control group”.
